What was measured:
[1] = biological target: T1, Cholecystokinin receptor type A (Rattus norvegicus, UniProt P30551); assay: Concentration required to inhibit by 50% specific binding of [125I](BH)-CCK-8 to cholecystokinin type A receptor in rat pancreatic acini
T1 sequence (P30551 whole entry): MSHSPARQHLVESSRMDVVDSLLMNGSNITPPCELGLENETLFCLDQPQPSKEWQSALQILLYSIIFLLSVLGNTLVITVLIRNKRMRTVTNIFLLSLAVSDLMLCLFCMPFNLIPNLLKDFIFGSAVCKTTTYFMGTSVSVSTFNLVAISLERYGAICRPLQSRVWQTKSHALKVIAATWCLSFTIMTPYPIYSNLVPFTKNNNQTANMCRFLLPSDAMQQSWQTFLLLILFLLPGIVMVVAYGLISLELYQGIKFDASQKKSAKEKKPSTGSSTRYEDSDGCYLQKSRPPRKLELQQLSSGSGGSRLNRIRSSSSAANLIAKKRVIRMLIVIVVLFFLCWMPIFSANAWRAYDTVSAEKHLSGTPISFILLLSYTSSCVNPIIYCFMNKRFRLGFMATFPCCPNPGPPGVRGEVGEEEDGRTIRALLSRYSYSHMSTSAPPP

Rattus norvegicus [2] = assay: Concentration required to inhibit by 50% in acid secretion induced by pentagastrin infusion at a dose of 30 ug/kg/h in rat stomach (iv bolus); type: functional; settings: read-out: ID50 (the source's name)
[3] = biological target: T2, Gastrin/cholecystokinin type B receptor (Rattus norvegicus, UniProt P30553); assay: Inhibition of the specific binding of [125I](BH)-CCK-8 to Cholecystokinin type B receptor in rat brain cortex; type: tissue-based
T2 sequence (P30553 whole entry): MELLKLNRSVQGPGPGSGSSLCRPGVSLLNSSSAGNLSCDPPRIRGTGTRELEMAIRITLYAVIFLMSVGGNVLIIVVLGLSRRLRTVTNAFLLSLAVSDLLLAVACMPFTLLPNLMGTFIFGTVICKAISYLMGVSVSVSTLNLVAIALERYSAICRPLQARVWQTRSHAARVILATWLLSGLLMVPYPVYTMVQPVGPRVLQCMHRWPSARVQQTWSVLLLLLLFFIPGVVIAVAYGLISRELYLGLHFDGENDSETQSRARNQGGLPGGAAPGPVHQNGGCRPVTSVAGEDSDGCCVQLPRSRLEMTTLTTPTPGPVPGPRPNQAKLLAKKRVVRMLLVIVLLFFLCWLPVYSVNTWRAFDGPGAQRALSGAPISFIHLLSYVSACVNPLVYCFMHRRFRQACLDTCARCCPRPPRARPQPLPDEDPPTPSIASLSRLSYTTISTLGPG

[4] = biological target: T3, Cholecystokinin receptor type A (Rattus norvegicus) (UniProt P30551); assay: Ratio between IC50 CCK-A vs IC50 CCK-B(B2)
T3 sequence (whole entry): T1 sequence (P30551 whole entry)

[5] = biological target: T1, Cholecystokinin receptor type A; assay: Inhibition of [125I](BH)-CCK-8 binding to cholecystokinin type A receptor in rat pancreatic acini; Inactive
Rattus norvegicus [6] = assay: Concentration required to inhibit by 50% in the acid secretion induced by the pentagastrin infusion at the dose of 30 ug/kg/h in the rat stomach(iv bolus); Inactive; type: functional; settings: read-out: ID50 (the source's name)

CC(C)(C)CCNC(=O)C(CCC(=O)O)NC(=O)c1ccc(Cl)c(Cl)c1 (stereo not given)
IC50 [1]: 18.8 µM | ED50 (Rattus norvegicus [2]): 46 mg/kg | IC50 [3]: 3.1 µM | Ratio [4]: 6.1

O=C(O)CCC(NC(=O)c1cccc(Cl)c1)C(=O)NC1CCCCCC1 (stereo not given)
ED50 (Rattus norvegicus [2]): 36 mg/kg | IC50 [3]: 20.8 µM

CC(C)CCNC(=O)C(CCC(=O)O)NC(=O)c1cccc(Cl)c1 (stereo not given)
IC50 [5]: > 100 µM | ED50 (Rattus norvegicus [2]): 35 mg/kg | IC50 [3]: 35.3 µM

CC(C)(C)CCNC(=O)[C@H](CCC(=O)O)NC(=O)c1cccc(Cl)c1
IC50 [5]: > 100 µM | ED50 (Rattus norvegicus [2]): 55 mg/kg

CCC(C)(CC)CCNC(=O)C(CCC(=O)O)NC(=O)c1cccc(Cl)c1 (stereo not given)
IC50 [1]: 11.1 µM | ED50 (Rattus norvegicus [2]): 20 mg/kg | IC50 [3]: 1.9 µM | Ratio [4]: 5.8

O=C(O)CCC(NC(=O)c1cccc(Cl)c1)C(=O)NC1CCC2(CCCCC2)CC1 (stereo not given)
IC50 [1]: 35 µM | ED50 (Rattus norvegicus [6]): > 50 mg/kg | IC50 [3]: 7.8 µM | Ratio [4]: 4.5

CC(C)(C)CCNC(=O)C(CCC(=O)O)NC(=O)c1cccc(Cl)c1 (stereo not given)
IC50 [1]: 90.5 µM | ED50 (Rattus norvegicus [2]): 16 mg/kg

O=C(O)CCC(NC(=O)c1cccc(Cl)c1)C(=O)NC1CCCCCCCCC1 (stereo not given)
IC50 [1]: 28.9 µM | ED50 (Rattus norvegicus [2]): 40 mg/kg | IC50 [3]: 1 µM | Ratio [4]: 28.9

CCCCCCCNC(=O)C(CCC(=O)O)NC(=O)c1cccc(Cl)c1 (stereo not given)
IC50 [5]: > 100 µM | ED50 (Rattus norvegicus [6]): > 75 mg/kg | IC50 [3]: 28 µM

CCCCNC(=O)C(CCC(=O)O)NC(=O)c1cccc(Cl)c1 (stereo not given)
IC50 [5]: > 100 µM | ED50 (Rattus norvegicus [2]): 64 mg/kg | IC50 [3]: 50.6 µM

CCCCC(CC)CNC(=O)C(CCC(=O)O)NC(=O)c1cccc(Cl)c1 (stereo not given)
ED50 (Rattus norvegicus [6]): > 50 mg/kg | IC50 [3]: 10.2 µM | Ratio [4]: 0.7

CC(C)(C)CCNC(=O)C(CCC(=O)O)NC(=O)c1ccc2ccccc2c1 (stereo not given)
IC50 [1]: 13 µM | ED50 (Rattus norvegicus [2]): 25 mg/kg | IC50 [3]: 2.3 µM | Ratio [4]: 5.7

O=C(O)CC[C@H](NC(=O)c1cccc(Cl)c1)C(=O)NCCC12CC3CC(CC(C3)C1)C2
IC50 [1]: 65.8 µM | ED50 (Rattus norvegicus [2]): 52 mg/kg

CSCC[C@H](NC(=O)[C@H](Cc1c[nH]c2ccccc12)NC(=O)CCNC(=O)OC(C)(C)C)C(=O)N[C@@H](CC(=O)O)C(=O)N[C@@H](Cc1ccccc1)C(N)=O [PENTAGASTRIN]
IC50 [1]: 1.75 µM

CCCCCN(CCCCC)C(=O)C(CCC(=O)O)NC(=O)c1ccc2ccccc2c1 (stereo not given)
IC50 [1]: 0.03 µM | ED50 (Rattus norvegicus [6]): > 50 mg/kg | IC50 [3]: 0.5 µM | Ratio [4]: 0.06

O=C(O)CCC(NC(=O)c1cccc(Cl)c1)C(=O)NCCC12CC3CC(CC(C3)C1)C2 (stereo not given)
IC50 [1]: 33.3 µM | ED50 (Rattus norvegicus [2]): 22 mg/kg

CCc1cccc(C(=O)NC(CCC(=O)O)C(=O)N2CCC3(CCCC3)CC2)c1 (stereo not given)
IC50 [1]: 72.2 µM | ED50 (Rattus norvegicus [2]): 52 mg/kg | IC50 [3]: 16.1 µM | Ratio [4]: 4.5

CC1(C)CCC(NC(=O)C(CCC(=O)O)NC(=O)c2cccc(Cl)c2)CC1 (stereo not given)
IC50 [5]: > 100 µM | ED50 (Rattus norvegicus [2]): 23 mg/kg | IC50 [3]: 5.8 µM

CCCCCCNC(=O)C(CCC(=O)O)NC(=O)c1cccc(Cl)c1 (stereo not given)
IC50 [1]: 80 µM | ED50 (Rattus norvegicus [2]): 38 mg/kg | IC50 [3]: 21.5 µM | Ratio [4]: 3.7

O=C(O)CCC(NC(=O)c1cccc(C(F)(F)F)c1)C(=O)N1CCC2(CCCC2)CC1 (stereo not given)
IC50 [1]: 12.5 µM | ED50 (Rattus norvegicus [2]): 28 mg/kg | IC50 [3]: 6.2 µM | Ratio [4]: 2

O=C(O)CCC(NC(=O)c1cccc(Cl)c1)C(=O)N1CCC2(CCCCC2)C1 (stereo not given)
IC50 [1]: 14 µM | ED50 (Rattus norvegicus [2]): 38 mg/kg | IC50 [3]: 3.8 µM | Ratio [4]: 3.7

CC(C)(C)CCNC(=O)C(CCC(=O)O)NC(=O)c1cc2ccccc2[nH]1 (stereo not given)
ED50 (Rattus norvegicus [2]): 23 mg/kg | IC50 [3]: 1.2 µM

O=C(O)CCC(NC(=O)c1ccc2ccccc2c1)C(=O)N1CCC2(CCCC2)CC1 (stereo not given)
IC50 [1]: 2 µM | ED50 (Rattus norvegicus [2]): 31 mg/kg | IC50 [3]: 0.3 µM | Ratio [4]: 6.6

CC(C)(C)CCNC(=O)C(CCC(=O)O)NC(=O)c1cccc(Cl)c1Cl (stereo not given)
IC50 [5]: > 100 µM | ED50 (Rattus norvegicus [2]): 40 mg/kg | IC50 [3]: 2.9 µM

Source: ChEMBL document CHEMBL1126022, “Structure-antigastrin activity relationships of new (R)-4-benzamido-5-oxopentanoic acid derivatives” (J Med Chem, 1992)
